How the values were obtained:
[1] = test system: porcine mucin; test: Hst 5 degradation analysis with porcine mucin (10 KDa cut-off filtrate, LC/MS); assay type: in vitro ADME; details: 37 °C, 1 h
Experimental: (§1) We next investigated whether the effect of these proteins on Hst 5 activity is related to complexation and Hst 5 sequestration or as a result, instead, of degradation caused by potential contaminating proteases that may be present in these commercial proteins. For this, 40 μM Hst 5 was incubated for 1 h at 37 °C with either 50 or 500 μg/mL porcine mucin or 40 μM albumin, respectively, and spun through a Centricon® 10 KDa molecular weight cut-off column that would allow Hst 5 and smaller peptides to pass through followed by Liquid Chromatography/Mass Spectrometry analysis of the eluate.
(§2) Proteolytic stability—For Hst 5 degradation analysis, Hst 5 was incubated with the required concentration of respective proteins for 1 h at 37 °C; and the reaction mixture was spun through a Centricon® 10 KDa cut-off column (Millipore UFC501024, Amicon Ultra-0.5 centrifugal filter unit with Ultracel-10 membrane), diluted in water with 2%TFA (trifluoroacetic acid) to 40 ug/mL of peptide, and analyzed by Liquid Chromatography/Mass Spectrometry utilizing a C18 column and an API3000 triple quadrupole mass spectrometer (Applied Biosystems, Foster City, CA,USA). The mass spectrum of Hst 5 gave a distribution of charge states with the most abundant being the M + 4 at 760 Da.

[2] = test system: C. albicans Msb2 domain mutant cells; test: Candidacidal assay on HA-tagged Msb2 domain mutant cells; assay type: cell-based, Candida albicans; details: Figure 6
Description: C. albicans strains with HA-tagged Msb2 and its domain mutants were constructed previously. These mutants consisted of versions of Msb2 lacking each of the major functional domains: ED1/2Δ lacking residues 100–900 of the glycosylated extracellular region so that shed Msb2 is truncated with low glycosylation; ED4Δ cells lacking Msb2 residues 900–1250 within the cleavage domain of Msb2 resulting in constitutive shedding of Msb2 due to loss of cell tethering; and TM-CYTΔ cells lacking residues 1250–1409 that comprise the transmembrane and cytoplasmic signaling domain of Msb2 so that Msb2 is cleaved and shed in the absence of signaling. Briefly, Msb2 deletion derivative strains were constructed by a PCR-based approach using the URA-Blaster technique. PCR primers were designed to amplify the 3HA-URA3–3HA cassette in plasmid pCaMPY-3XHA [26], tailed with an additional 80 nucleotides of sequence flanking the open reading frame (ORF) of the region to be disrupted. PCR products were verified by gel electrophoresis. The purified PCR product (10 μg) was transformed into the Δmsb2/MSB2 strain with Frozen-EZ Yeast Transformation II Kit (Zymo Research, CA, USA). Uracil-deficient agar (YNB-URA) media was used for selection of URA positive colonies. PCR-based analysis of transformants was performed with primer pairs internal to the wild-type locus and the URA cassette. Homozygous transformants were reverted to the URA negative phenotype by selection on 5-fluororotic acid (5-FOA). Domain deletion knockouts were verified by immunoblot analysis.
(§3) Candidacidal assays—The susceptibility of C. albicans cells to Hst 5 was measured using microdilution plate assays in triplicate as previously described, with some modifications for experiments involving rSap6 and mucins. Briefly, Hst 5 was incubated with the required concentration of respective proteins for 1 h at 37 °C before performing the candidacidal assay. For heat inactivated control of rSaps, protein was heat inactivated at 120 °C for 10 min before using in the candidacidal assay.

[3] = target: T1, rSap 6 (Candida albicans, UniProt Q5AC08); test: Proteolytic stability of Hst 5 with rSap 6 (10 KDa cut-off filtrate, LC/MS); assay type: in vitro ADME; details: 2:1 Hst 5: Sap 6, 37 °C, 1 h, C18 column, peaks m/z 760, 608, 507
T1 construct: made in house
T1 sequence (Q5AC08 77-418): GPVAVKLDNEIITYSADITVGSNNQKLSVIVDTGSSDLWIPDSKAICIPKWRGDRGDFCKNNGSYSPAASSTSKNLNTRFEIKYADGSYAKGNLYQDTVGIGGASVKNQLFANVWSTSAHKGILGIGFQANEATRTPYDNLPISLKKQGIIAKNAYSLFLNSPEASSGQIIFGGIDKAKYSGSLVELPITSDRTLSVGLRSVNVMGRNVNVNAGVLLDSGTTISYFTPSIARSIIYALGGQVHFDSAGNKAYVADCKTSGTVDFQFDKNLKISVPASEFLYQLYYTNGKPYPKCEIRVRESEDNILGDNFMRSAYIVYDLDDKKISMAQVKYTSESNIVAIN
Experimental: To further address whether Sap 6 degrades Hst 5, we spun the 2:1 Hst 5: Sap 6 incubation mixture through a Centricon® 10 KDa molecular weight cut-off column that would allow Hst 5 and smaller peptides to pass through; and subjected the eluate to Liquid Chromatography/Mass Spectrometry. […] Analysis of these fragments to determine Sap6-specific cleavage sites within Hst 5 is ongoing.
as §2

[4] = target: T2, albumin (Bos taurus, UniProt P02769); test: Hst 5 degradation analysis with albumin (10 KDa cut-off filtrate, LC/MS); assay type: in vitro ADME; details: 40 μM Hst 5 with 40 μM albumin, 37 °C, 1 h, C18 column
T2 construct: purchased Sigma Aldrich A2153
T2 sequence (P02769 25-607): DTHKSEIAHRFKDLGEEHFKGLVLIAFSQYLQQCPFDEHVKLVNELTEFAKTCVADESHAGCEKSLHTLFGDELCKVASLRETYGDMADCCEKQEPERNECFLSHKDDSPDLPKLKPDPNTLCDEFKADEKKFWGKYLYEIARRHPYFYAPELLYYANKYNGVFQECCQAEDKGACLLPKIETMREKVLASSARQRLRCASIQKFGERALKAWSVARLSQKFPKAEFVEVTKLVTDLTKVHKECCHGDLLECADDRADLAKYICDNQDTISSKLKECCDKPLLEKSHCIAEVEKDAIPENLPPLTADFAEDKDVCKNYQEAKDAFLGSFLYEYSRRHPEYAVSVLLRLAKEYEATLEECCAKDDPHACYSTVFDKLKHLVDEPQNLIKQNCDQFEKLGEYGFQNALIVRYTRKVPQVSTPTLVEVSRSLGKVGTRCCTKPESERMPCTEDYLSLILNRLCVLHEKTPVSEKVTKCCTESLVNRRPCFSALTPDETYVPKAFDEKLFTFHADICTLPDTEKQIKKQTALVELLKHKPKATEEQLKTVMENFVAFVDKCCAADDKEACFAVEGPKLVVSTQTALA
Experimental: as §1, §2

[5] = test system: Candida albicans; test: Candidacidal assay (microdilution plate) of Hst 5 after pre-incubation with proteins; assay type: cell-based; details: 37 °C, 1 h
Experimental: as §3

[6] = target: T3, Histatin 5 (UniProt P15516)
T3 sequence (peptide): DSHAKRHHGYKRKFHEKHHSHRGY

Molecule: C[C@H](NC(=O)[C@H](Cc1cnc[nH]1)NC(=O)[C@H](CO)NC(=O)[C@@H](N)CC(=O)O)C(=O)N[C@@H](CCCCN)C(=O)N[C@@H](CCCNC(=N)N)C(=O)N[C@@H](Cc1cnc[nH]1)C(=O)N[C@@H](Cc1cnc[nH]1)C(=O)NCC(=O)N[C@@H](Cc1ccc(O)cc1)C(=O)N[C@@H](CCCCN)C(=O)N[C@@H](CCCNC(=N)N)C(=O)N[C@@H](CCCCN)C(=O)N[C@@H](Cc1ccccc1)C(=O)N[C@@H](Cc1cnc[nH]1)C(=O)N[C@@H](CCC(=O)O)C(=O)N[C@@H](CCCCN)C(=O)N[C@@H](Cc1cnc[nH]1)C(=O)N[C@@H](Cc1cnc[nH]1)C(=O)N[C@@H](CO)C(=O)N[C@@H](Cc1cnc[nH]1)C(=O)N[C@@H](CCCNC(=N)N)C(=O)NCC(=O)N[C@@H](Cc1ccc(O)cc1)C(=O)O [Hst 5, Histatin 5]
- intact Hst 5 mass peaks after incubation ([1]; 40 μM Hst 5 with 500 μg/mL porcine mucin, M + 4 (760) peak still observed at lower intensity): almost complete disappearance of m/z peaks at 507 and 608
- intact Hst 5 mass peaks after incubation ([1]; 40 μM Hst 5 with 50 or 500 μg/mL porcine mucin, C18 column): large dose-dependent decrease in the intensity of all three m/z peaks
- Hst 5 killing compared with WT ([2]; ED1/2Δ cells (release truncated Msb2 shed domain), p > 0.05): killing similar to WT Msb2-HA cells
- Hst 5 killing compared with WT ([2]; ED4Δ cells (constitutively shed Msb2), p > 0.05): killing similar to WT Msb2-HA cells
- Hst 5 killing compared with WT ([2]; TM-CYTΔ cells (lack transmembrane and cytoplasmic domain of Msb2)): reduced killing
- Hst 5 killing ([2]; cells lacking Msb2 (msb2Δ, no shedding), compared to other sMsb2 defective strains): killing was not significantly reduced
- intact Hst 5 mass peaks after incubation with protease [3]: completely disappeared
- intact Hst 5 mass peaks after incubation [4]: reduction in the peak intensity of all 3 m/z peaks for intact Hst 5 with no emergence of any significant lower m/z peaks
- effect on Hst 5 candidacidal activity ([5]; Hst 5 30 μM pre-incubated with heat inactivated rSap 6 (120 °C, 10 min)): did not affect Hst 5 activity
- effect on Hst 5 candidacidal activity ([5]; Hst 5 30 μM with porcine gut mucin 5 μg/mL): no effect on Hst 5 activity
- effect on Hst 5 candidacidal activity ([5]; Hst 5 30 μM with porcine gut mucin 50 μg/mL): no effect on Hst 5 activity

Molecule: albumin (from UniProt P02769 25-607) (natural protein)
- candidacidal activity (percent killing of C. albicans) of 30 uM Hst 5 after 1 h at 37 C with equimolar albumin; 70% without added protein [6]: 50 % killing

Molecule: purified full-length shed domain of Msb2 (domain or fragment)
- candidacidal activity (percent killing of C. albicans) of 30 uM Hst 5 after 1 h at 37 C with equimolar sMsb2; 70% without added protein [6]: 38 % killing

B1: fetuin (natural protein)
chain: IPLDPVAGYKEPACDDPDTEQAALAAVDYINKHLPRGYKHTLNQIDSVKVWPRRPTGEVYDIEIDTLETTCHVLDPTPLANCSVRQQTQHAVEGDCDIHVLKQDGQFSVLFTKCDSSPDSAEDVRKLCPDCPLLAPLNDSRVVHAVEVALATFNAESNGSYLQLVEISRAQFVPLPVSVSVEFAVAATDCIAKEVVDPTKCNLLAEKQYGFCKGSVIQKALGGEDVRVTCTLFQTQPVIPQPQPDGAEAEAPSAVPDAAGPTPSAAGPPVASVVVGPSVVAVPLPLHRAHYDLRHTFSGVASVESSSGEAFHVGKTPIVGQPSIPGGPVRLCPGRIRYFKI
modifications: glycosylated
- candidacidal activity (percent killing of C. albicans) of 30 uM Hst 5 after 1 h at 37 C with equimolar fetuin; 70% without added protein [6]: 50 % killing
